Data reported in ChEMBL document CHEMBL4382291, “Aminopyrazole Carboxamide Bruton's Tyrosine Kinase Inhibitors. Irreversible to Reversible Covalent Reactive Group Tuning” (ACS Med Chem Lett, 2019).

Key:
[1] = molecular target: Proto-oncogene tyrosine-protein kinase Src (Homo sapiens, UniProt P12931); assay: Inhibition of full-length recombinant human C-terminal His-tagged SRC cytoplasmic domain expressed in baculovirus expression system using FAM-Srctide peptide as substrate preincubated for 1 hr followed by substrate addition and measured after 1 hr by TR-FRET Lanthascreen assay
Sequence of Proto-oncogene tyrosine-protein kinase Src (P12931 2-536 limits assumed): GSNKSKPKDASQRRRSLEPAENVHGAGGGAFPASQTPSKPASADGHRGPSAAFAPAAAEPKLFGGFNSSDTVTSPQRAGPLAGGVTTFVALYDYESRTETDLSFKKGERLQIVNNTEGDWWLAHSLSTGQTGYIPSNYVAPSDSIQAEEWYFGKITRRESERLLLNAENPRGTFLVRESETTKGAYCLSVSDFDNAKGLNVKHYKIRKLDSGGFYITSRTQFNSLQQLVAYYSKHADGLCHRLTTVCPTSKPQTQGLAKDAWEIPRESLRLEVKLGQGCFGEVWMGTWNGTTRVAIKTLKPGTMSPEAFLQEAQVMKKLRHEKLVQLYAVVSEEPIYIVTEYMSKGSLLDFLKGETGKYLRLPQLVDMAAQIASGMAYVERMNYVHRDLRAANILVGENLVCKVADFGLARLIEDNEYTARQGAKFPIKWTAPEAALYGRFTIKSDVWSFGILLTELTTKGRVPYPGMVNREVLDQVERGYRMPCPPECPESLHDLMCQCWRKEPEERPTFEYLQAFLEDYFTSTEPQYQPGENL

[2] = molecular target: Tyrosine-protein kinase BTK (Homo sapiens, UniProt Q06187, C481S); assay: Inhibition of full-length human C-terminal His6-tagged BTK C481S mutant expressed in Sf9 insect cells using FAM-Srctide peptide as substrate preincubated for 1 hr followed by substrate addition and measured after 1 hr by TR-FRET Lanthascreen assay
Sequence of Tyrosine-protein kinase BTK (Homo sapiens, UniProt Q06187, C481S) (Q06187 2-659 C481S limits assumed): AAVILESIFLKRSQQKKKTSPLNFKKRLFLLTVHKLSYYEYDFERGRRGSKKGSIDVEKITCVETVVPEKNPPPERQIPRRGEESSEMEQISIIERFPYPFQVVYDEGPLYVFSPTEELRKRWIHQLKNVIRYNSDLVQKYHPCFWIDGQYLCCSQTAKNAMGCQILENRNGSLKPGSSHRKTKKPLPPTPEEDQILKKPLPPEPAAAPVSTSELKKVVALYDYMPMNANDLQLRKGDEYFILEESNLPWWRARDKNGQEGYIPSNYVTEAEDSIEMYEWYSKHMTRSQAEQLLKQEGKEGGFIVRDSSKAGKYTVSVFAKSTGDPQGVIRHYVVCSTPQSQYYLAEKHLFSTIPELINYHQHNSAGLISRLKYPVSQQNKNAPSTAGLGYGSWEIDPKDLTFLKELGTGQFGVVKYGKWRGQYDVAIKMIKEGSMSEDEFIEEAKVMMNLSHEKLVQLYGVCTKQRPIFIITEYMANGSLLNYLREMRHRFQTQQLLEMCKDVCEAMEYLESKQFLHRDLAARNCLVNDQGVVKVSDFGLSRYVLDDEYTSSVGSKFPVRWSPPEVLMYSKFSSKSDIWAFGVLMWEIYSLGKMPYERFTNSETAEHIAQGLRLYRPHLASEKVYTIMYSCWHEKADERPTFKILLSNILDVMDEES

[3] = molecular target: T1, Tyrosine-protein kinase BTK (Homo sapiens, UniProt Q06187); assay: Inhibition of BTK in human whole blood assessed as reduction in anti-human IgE antibody-stimulated histamine release pretreated for 2 hrs followed by anti-human IgE antibody-stimulation and measured after 30 mins by ELISA; format: tissue-based
T1 sequence (Q06187 whole entry): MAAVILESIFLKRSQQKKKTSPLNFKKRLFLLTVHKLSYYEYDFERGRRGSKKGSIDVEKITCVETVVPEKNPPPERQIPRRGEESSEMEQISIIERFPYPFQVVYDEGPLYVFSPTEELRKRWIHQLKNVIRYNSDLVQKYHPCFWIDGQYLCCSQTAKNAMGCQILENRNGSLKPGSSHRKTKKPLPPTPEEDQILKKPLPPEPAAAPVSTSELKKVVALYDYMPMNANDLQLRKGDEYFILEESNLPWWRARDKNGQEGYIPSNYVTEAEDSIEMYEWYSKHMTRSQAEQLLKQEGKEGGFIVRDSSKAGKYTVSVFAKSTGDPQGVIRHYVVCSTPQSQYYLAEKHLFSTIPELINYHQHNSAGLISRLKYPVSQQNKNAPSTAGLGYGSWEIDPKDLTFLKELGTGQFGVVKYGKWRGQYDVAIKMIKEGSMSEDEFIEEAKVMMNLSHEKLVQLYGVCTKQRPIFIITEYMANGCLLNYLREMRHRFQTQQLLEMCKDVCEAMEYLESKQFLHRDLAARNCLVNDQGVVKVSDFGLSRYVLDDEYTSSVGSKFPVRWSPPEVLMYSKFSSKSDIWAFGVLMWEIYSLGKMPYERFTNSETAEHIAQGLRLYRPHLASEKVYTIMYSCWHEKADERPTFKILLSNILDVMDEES

[4] = molecular target: T1, Tyrosine-protein kinase BTK; assay: Inhibition of BTK in goat anti-human IgM F(ab')2-stimulated human whole blood assessed as suppression of CD69 expression on B cells pretreated for 1 hr followed by goat anti-human IgM F(ab')2-stimualtion and measured after 3 hrs by Fix/Lyse reagent based flow cytometry; format: tissue-based
[5] = Clearance in human microsomes; format: ADME, Microsome
[6] = Permeability in RRCK cells; format: ADME, cell-based, Canis lupus familiaris, MDCKII-LE; details: dog, MDCK; read-out: permeability
[7] = Oral bioavailability in Wistar Han rat at 1 mg/kg administered via gavage by LC-MS/MS analysis; format: ADME, organism-based; details: in vivo
[8] = molecular target: T1, Tyrosine-protein kinase BTK
Description: Reversible inhibition of full-length human His-tagged BTK expressed in baculovirus expression system assessed as apparent dissociation half life by kinase tracer 236 based TR-FRET assay

[9] = molecular target: Epidermal growth factor receptor (Homo sapiens, UniProt P00533)
Sequence of Epidermal growth factor receptor (P00533 whole entry): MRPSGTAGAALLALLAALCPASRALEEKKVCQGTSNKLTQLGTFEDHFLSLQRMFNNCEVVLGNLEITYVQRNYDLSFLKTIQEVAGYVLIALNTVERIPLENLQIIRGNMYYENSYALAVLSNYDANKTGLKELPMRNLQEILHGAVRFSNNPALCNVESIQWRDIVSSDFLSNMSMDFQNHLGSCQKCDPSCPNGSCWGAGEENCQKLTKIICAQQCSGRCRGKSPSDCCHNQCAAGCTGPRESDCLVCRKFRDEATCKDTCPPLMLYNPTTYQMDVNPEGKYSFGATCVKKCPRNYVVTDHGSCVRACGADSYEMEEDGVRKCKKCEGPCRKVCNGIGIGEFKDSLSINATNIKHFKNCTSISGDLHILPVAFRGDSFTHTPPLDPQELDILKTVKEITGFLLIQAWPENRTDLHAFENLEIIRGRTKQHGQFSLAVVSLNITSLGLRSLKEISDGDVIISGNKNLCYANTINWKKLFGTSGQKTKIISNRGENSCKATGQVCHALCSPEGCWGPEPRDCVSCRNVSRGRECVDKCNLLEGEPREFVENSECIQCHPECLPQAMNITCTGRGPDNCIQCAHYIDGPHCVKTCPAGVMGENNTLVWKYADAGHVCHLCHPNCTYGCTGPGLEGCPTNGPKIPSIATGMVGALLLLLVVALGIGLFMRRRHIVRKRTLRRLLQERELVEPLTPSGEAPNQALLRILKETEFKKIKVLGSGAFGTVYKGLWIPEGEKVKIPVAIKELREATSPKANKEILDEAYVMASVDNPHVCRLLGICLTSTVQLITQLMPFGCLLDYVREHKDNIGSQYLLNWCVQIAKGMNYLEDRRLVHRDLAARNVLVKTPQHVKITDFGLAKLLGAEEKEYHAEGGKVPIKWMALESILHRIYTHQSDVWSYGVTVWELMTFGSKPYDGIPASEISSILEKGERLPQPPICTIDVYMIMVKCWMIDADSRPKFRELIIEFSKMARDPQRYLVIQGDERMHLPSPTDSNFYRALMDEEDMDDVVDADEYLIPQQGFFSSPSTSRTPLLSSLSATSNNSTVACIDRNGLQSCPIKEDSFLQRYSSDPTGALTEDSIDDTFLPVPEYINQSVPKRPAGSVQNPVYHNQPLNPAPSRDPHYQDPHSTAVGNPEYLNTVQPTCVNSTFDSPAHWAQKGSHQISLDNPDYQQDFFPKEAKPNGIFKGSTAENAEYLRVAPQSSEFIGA

[10] = molecular target: T1, Tyrosine-protein kinase BTK; remark: listed apart in the source
Description: Inhibition of full-length human His-tagged BTK expressed in baculovirus expression system using FAM-Srctide peptide as substrate preincubated for 1 hr followed by substrate addition and measured after 1 hr by TR-FRET Lanthascreen assay

[11] = Cytotoxicity against human THLE cells; format: cell-based

| Structure (SMILES) | IC50 [1] [nM] | IC50 [2] [nM] | IC50 [3] [nM] | IC50 [4] [nM] | microsomal CLint [5] [µL/min/mg] | Papp [6] [×10⁻⁶ cm/s] | bioavailability [7] [%] | T1/2 [8] [h] | IC50 [9] [nM] | IC50 [10] [nM] | IC50 [11] [nM] |
| --- | --- | --- | --- | --- | --- | --- | --- | --- | --- | --- | --- |
| N#CN1CCC[C@@H](n2nc(-c3ccc(Oc4ccc(Cl)cc4)cc3)c(C(N)=O)c2N)C1 | 1400 | 48 | 21 | 46 | < 8 | > 10 | 76 to 93 | 6 | – | – | – |
| C=CC(=O)N1CCC[C@@H](n2nc(-c3ccc(Oc4ccc(Cl)cc4)cc3)c(C(N)=O)c2N)C1 | 72 | – | – | – | – | – | – | – | 15 | 0.18 | – |
| NC(=O)c1c(-c2ccc(Oc3ccc(F)cc3F)cc2)nn([C@@H]2CCCN(C(=O)/C=C/CF)C2)c1N | 3140 | 90 | – | – | – | – | – | > 24 | – | 2.7 | 49000 |
| C=CC(=O)N1CCC[C@@H](n2nc(-c3ccc(Oc4ccccc4)cc3)c3c(N)ncnc32)C1 [IBRUTINIB] | – | – | – | – | – | – | – | – | – | – | 11000 |
| C=C(C)C(=O)N1CCC[C@@H](n2nc(-c3ccc(Oc4ccc(F)cc4F)cc3)c(C(N)=O)c2N)C1 | 3350 | 176 | – | – | – | – | – | – | > 20000 | 247 | – |
| N#CN1CCC[C@@H](n2nc(-c3ccc(Oc4ccc(F)cc4F)cc3)c(C(N)=O)c2N)C1 | 1630 | 43 | 64 | 53 | < 8 | > 10 | 76 to 93 | 6 | 16800 | 1.5 | 137000 |
| NC(=O)c1c(-c2ccc(Oc3ccc(F)cc3F)cc2)nn([C@@H]2CCCN(C(=O)/C=C/CO)C2)c1N | 4610 | 33 | – | – | – | – | – | > 24 | 2910 | – | 43000 |
| N#CN1CCC[C@@H](n2nc(-c3ccc(Oc4cccc(C(F)(F)F)n4)cc3)c(C(N)=O)c2N)C1 | 14400 | 36 | 42 | 33 | < 8 | > 10 | 76 to 93 | 3 | > 20000 | – | – |
| N#CN1CCC[C@@H](n2nc(-c3ccc(Oc4ccccc4)cc3)c(C(N)=O)c2N)C1 | 4.2 | 2.8 | – | – | – | – | – | 7 | 1710 | 0.37 | – |
| C=CC(=O)N1CCC[C@@H](n2nc(-c3ccc(Oc4ccc(F)cc4F)cc3)c(C(N)=O)c2N)C1 | 4030 | 17 | – | – | – | – | – | > 24 | 26 | 0.25 | 15000 |
| N#CN1CCC[C@@H](n2nc(-c3ccc(Oc4ccc(Cl)cn4)cc3)c(C(N)=O)c2N)C1 | > 20000 | 92 | 95 | 45 | < 8 | > 10 | 76 to 93 | 7 | 15400 | 6.2 | – |
| CN(C)C/C=C/C(=O)N1CCC[C@@H](n2nc(-c3ccc(Oc4ccc(F)cc4F)cc3)c(C(N)=O)c2N)C1 | 370 | 65 | – | – | – | – | – | > 24 | 149 | 3.7 | 15000 |
| NC(=O)c1c(-c2ccc(Oc3ccc(F)cc3F)cc2)nn([C@@H]2CCCN(C(=O)/C=C/C(F)F)C2)c1N | 5840 | 115 | – | – | – | – | – | > 24 | – | 0.41 | 8000 |
| N#CN1CCC[C@@H](n2nc(-c3ccc(Oc4ncc(Cl)cc4F)cc3)c(C(N)=O)c2N)C1 | > 20000 | 230 | 50 | 89 | < 8 | > 10 | 76 to 93 | 5 | > 20000 | – | – |
| C=C(F)C(=O)N1CCC[C@@H](n2nc(-c3ccc(Oc4ccc(F)cc4F)cc3)c(C(N)=O)c2N)C1 | 6480 | 170 | – | – | – | – | – | > 24 | 570 | – | 67000 |
| C/C=C/C(=O)N1CCC[C@@H](n2nc(-c3ccc(Oc4ccc(F)cc4F)cc3)c(C(N)=O)c2N)C1 | 3410 | 66 | – | – | – | – | – | > 24 | > 20000 | 61 | 149000 |
